Data from article PMC4388716, “An Exploratory Study on ^99mTc-RGD-BBN Peptide Scintimammography in the Assessment of Breast Malignant Lesions Compared to ^99mTc-3P4-RGD2” (PLoS ONE, 2015).

Legend:
[1] = cited from earlier work; for Effective radiation dose of conventional nuclear medical imaging agent examination: in vivo
Excerpt: The effective radiation dose to the body of ^99mTc-3P4-RGD2 and ^99mTc-RGD-BBN were 1.15 ± 0.13 mSv and 0.65 ± 0.07 mSv respectively ^9. According to the 2007 Recommendations of the International Commission on Radiological Protection (ICRP), radiation equivalent dose which occupational workers’ vital organs were exposed to should be less than 500mSv and radiosensitive organs should be less than 150mSv. In our study, the mean absorbed dose equivalent for the whole body was 2.02E-03 mSv / MBq in healthy males and 2.31E-03 mSv / MBq in healthy females. Compared with other clinical mar ...

breast malignant lesions = experiment: SPECT/CT scintimammography of patients with breast malignant tumors; type: in vivo, human; design: key to Visual uptake grading: grade 1 = no abnormal increased uptake; grade 2 = mildly increased or heterogeneous uptake; grade 3 = definite focal increased uptake; conditions: for Visual uptake grading: SPECT/CT 1 h p.i., 3 readers
Excerpt: All patients were sent to the ^99mTc-3P4-RGD2 and ^99mTc-RGD-BBN SMM on an individual basis. The time interval between two imaging procedures was 48–54 hr. Finally, ^99mTc-RGD-BBN and ^99mTc-3P4-RGD2 SMM results were compared with each other. To be included, a patient had to be without any other history of breast disease. Exclusion criteria included pregnancy, lactation and a body weight greater than 80 kg.
The 3P4-RGD2 and RGD-BBN were generously provided by the Medical Isotopes Research Center of Peking University in freeze-dried kits form. Na^99mTcO4 was obtained from a commercial ^99Mo/^99mTc generator (Beijing Atom High Tech Co., Ltd.). The kit for preparation of ^99mTc-3P4-RGD2 was formulated by containing, per millilitre, 20 μg of HYNIC-3P4-RGD2, 5 mg of TPPTS, 6.5 mg of tricine, 40 mg of mannitol, 38.5 mg of disodium succinate hexahydrate and 12.7 mg of succinic acid. Radiolabeling and quality control procedures for ^99mTc-3P4-RGD2 were performed as described previously ^4. The kit for preparation of ^99mTc-RGD-BBN was formulated by containing, per millilitre, 20 μg of HYNIC-RGD-BBN, 6 mg of TPPTS, 10 mg of tricine, 40 mg of mannitol, 38.5 mg of disodium succinate hexahydrate and 12.7 mg of succinic acid. Then 1 mL of Na^99mTcO4 solution in saline was added to each kit vial followed by 30 min incubation at 100°C. The quality control was conducted by radioactive thin layer chromatography (ITLC), counting the high labeling yield of about 95%. Both ^99mTc-3P4-RGD2 and ^99mTc-RGD-BBN with a mean radioactivity of 299 ± 30 MBq and 293 ± 32 MBq were administered via single intravenous bolus injection followed by a 10 mL saline flush. ^99mTc-3P4-RGD2 and ^99mTc-RGD-BBN was performed with SPECT/CT at 1 h after intravenous injection of radiotracers respectively on separate days.
SPECT: Emission images were acquired using a dual-head, large field-of-view scintillation camera (Precedence, Philips Healthcare), equipped with a low-energy, high-resolution and parallel-hole collimator. In all healthy volunteers, planar images in both anterior and posterior views were acquired at 10 min, 30 min, 1 h, 2 h, 4 h, 8 h and 24 h post-injection and were stored digitally, using ^99mTc with a 20% energy window centered on 140 keV and 128×128 matrix. The velocity of scanning was 15 cm/min. SPECT images in all the patients were acquired over 360° (180°per head) in supine position with raised arms during the imaging. Imaging with both radiotracers was performed using 6°angular steps in a 20 s time frame, with a 64×64 matrix size. Distance between the breast and detector was minimized. The position of the patient was recorded in detail and kept consistent to the greatest extent in the second SPECT scan to make sure that the two different SPECT images could be fused to the CT images.
CT images from neck to abdomen were acquired sequentially in a non-dedicated 3rd-generation scanner installed in the SPECT camera gantry, with a 10 mm slice thickness, a maximum current of 2.5 mA and a 140 kV potential. The patients just had one CT scan since ^99mTc-3P4-RGD2 and ^99mTc-RGD-BBN SPECT were undertaken on the same device.
All images were interpreted qualitatively by three experienced nuclear medicine radiologists who were unaware of the clinical history and other test results of all patients. Visual analysis was performed on a per-lesion basis and in a blinded fashion. A 3-point scale system was adopted to describe the uptake degree for breast lesions. […] Homogeneous uptake in both breasts was classified as grade 1. SMM was considered positive for malignancy if the visual score was ≥2. There was no disagreement between three radiologists in our study.

Compound | Effective radiation dose of conventional nuclear medical imaging agent examination [1] [mSv] | Effective radiation dose to the body ([1]; per examination (299 ± 30 MBq 99mTc-3P4-RGD2, 293 ± 32 MBq 99mTc-RGD-BBN i.v.)) [mSv] | Visual uptake grading (breast malignant lesions; Patient 1: DCIS, R, 2.3 cm, αvβ3 -, GRPR +) | Visual uptake grading (breast malignant lesions; Patient 2: DCIS, L, 2.0 cm, αvβ3 +, GRPR +) | Visual uptake grading (breast malignant lesions; Patient 3: IDC, L, 5.1 cm, αvβ3 +, GRPR +) | Visual uptake grading (breast malignant lesions; Patient 4: IDC, R, 2.1 cm, αvβ3 +, GRPR -) | Visual uptake grading (breast malignant lesions; Patient 5: IDC, L, 5.8 cm, αvβ3 +, GRPR +) | Visual uptake grading (breast malignant lesions; Patient 6: IDC, L, 6.3 cm, αvβ3 +, GRPR +) | Malignant lesions detected by SPECT/CT (of 6 malignant lesions in 6 patients) (breast malignant lesions; SPECT/CT 1 h after i.v. injection, 4 IDC, 2 DCIS)
O.O.O=P([O-])([O-])CP(=O)([O-])[O-].[99Tc+4] [99mTc—MDP] | 5.92 |  |  |  |  |  |  |  | 
[99Tc].[C-]#[N+]CC(C)(C)OC.[C-]#[N+]CC(C)(C)OC.[C-]#[N+]CC(C)(C)OC.[C-]#[N+]CC(C)(C)OC.[C-]#[N+]CC(C)(C)OC.[C-]#[N+]CC(C)(C)OC [99mTc—MIBI] | 7.05 |  |  |  |  |  |  |  | 
[^99mTc (HYNIC-3PRGD2) (tricine) (TPPTS)] [99mTc-3P4-RGD2] |  | 1.15 ± 0.13 | 1 | 3 | 3 | 3 | 3 | 3 | five lesions with clear uptake and the other one with barely uptake
